Reference: PubChem BioAssay (NCI)
Values joined by “and” are separate entries in the source; they are usually repeats but may differ in a detail not shown here. Identical values can stand only once.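 Following 48 hours of exposure in 96-well plates, responses at five concentrations were used to interpolate endpoints linearly. The concentration for 50% growth inhibition is given as GI50. TGI: total growth inhibition.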

Experiments:
Assay in all cases: DTP human tumour cell line panel, 48 h
BT-549 breast = test system: BT-549 breast
RXF 393 renal = test system: RXF 393 renal
SF-539 CNS = test system: SF-539 CNS
COLO 205 colon = test system: COLO 205 colon
HL-60(TB) leukemia = test system: HL-60(TB) leukemia
HOP-92 NSCLC = test system: HOP-92 NSCLC
SK-MEL-28 melanoma = test system: SK-MEL-28 melanoma
DLD-1 colon = test system: DLD-1 colon
DMS 273 small cell lung = test system: DMS 273 small cell lung
M19-MEL melanoma = test system: M19-MEL melanoma

| SMILES | GI50 (BT-549 breast) [µM] | TGI (BT-549 breast) [µM] | GI50 (RXF 393 renal) [µM] | TGI (RXF 393 renal) | GI50 (SF-539 CNS) [µM] | TGI (SF-539 CNS) | GI50 (COLO 205 colon) [µM] | TGI (COLO 205 colon) | GI50 (HL-60(TB) leukemia) [µM] | TGI (HL-60(TB) leukemia) | GI50 (HOP-92 NSCLC) [µM] | TGI (HOP-92 NSCLC) | GI50 (SK-MEL-28 melanoma) [µM] | TGI (SK-MEL-28 melanoma) [µM] | TGI (DLD-1 colon) [µM] | TGI (DMS 273 small cell lung) [µM] | TGI (M19-MEL melanoma) [µM] |
| --- | --- | --- | --- | --- | --- | --- | --- | --- | --- | --- | --- | --- | --- | --- | --- | --- | --- |
| COC(=O)c1c2c(c(C)[n+]([O-])c1C)C(=O)C(NCc1ccc(F)c(F)c1)=CC2=O | 2.14 | 5.86 | 2.15 | 5.96 µM | 1.92 | 4.12 µM | 0.673 | 2.1 µM | 1.86 | 4.4 µM | 2.81 | 6.43 µM | 4.11 | 13.8 |  |  |  |
| NC(=O)Oc1cc(OC(N)=O)cc(N(CCCl)CCCl)c1 | 7.93 | 30.7 | 1.98 | 5.4 µM | 1.65 | 5.96 µM | 15.2 | 38.6 µM | 1.58 | > 100 µM | 0.849 | 7.87 µM | 15.7 | 65.3 |  |  |  |
| Cc1ccc(C(=O)NC2CCCCC2)cc1-c1ccc(C(=O)NCC2CC2)cc1 | > 22.6 | > 25 | > 25 | > 25 µM | > 25 | > 25 µM | > 25 | > 25 µM | > 25 | > 25 µM | 6.02 | > 25 µM | > 25 | > 25 |  |  |  |
| Cn1cnc2c(NCc3ccccc3)nc(NCCO)nc21 | 147 | > 454 | 17.7 | 40.4 µM and 187 µM | 36.7 | > 90 µM and 92.7 µM | 82.2 | 69.7 µM and 282 µM | 73.2 | > 73 µM and 220 µM | 138 | > 90.2 µM and 375 µM | 88.7 | 280 |  |  |  |
| CN(CCC(=O)O)S(=O)(=O)c1ccccc1 |  | > 100 |  | > 100 µM |  | > 100 µM |  | > 100 µM |  | > 100 µM |  | > 100 µM |  | > 100 |  |  |  |
| CN1CCN(Cc2ccc(Nc3ncc(Cl)c(Nc4ccccc4S(=O)(=O)N(C)C)n3)cc2)CC1 | 0.137 | 0.374 | 0.033 | 0.122 µM | 0.114 | 0.343 µM | 0.0278 | 0.222 µM | 0.0175 | 0.198 µM | 0.0999 | 1.68 µM | 0.0497 | 0.415 |  |  |  |
| Clc1ccc2nc(CCSCCc3nc4ccc(Cl)cc4[nH]3)[nH]c2c1 |  |  |  | 38.6 µM |  | 32.7 µM |  | 29 µM |  | 8.09 µM |  | 30.6 µM |  |  | 33.8 | 29 | 27.4 |
| COc1ccc(Nc2ccnc(NCCCNc3ccnc4cc(Cl)ccc34)n2)cc1 | 1.65 | 3.94 | 0.897 | 2.3 µM | 0.169 | 0.352 µM | 1.21 | 2.65 µM | 1.59 | 4.1 µM | 0.632 | 2.65 µM | 0.434 | 1.66 |  |  |  |
| Nc1nccc(Nc2ccc(S(N)(=O)=O)cc2)n1 |  | > 100 |  | > 100 µM |  | > 100 µM |  | > 100 µM |  | > 100 µM |  | > 100 µM |  | > 100 |  |  |  |
| COc1ccc(F)cc1C(=O)c1cnc(NC2CCN(S(C)(=O)=O)CC2)nc1N | 4.11 | 14.3 | 2.75 | 6.58 µM | 3.29 | 7.77 µM | 1.25 | 5.22 µM | 1.66 | 18.1 µM | 1.35 | 9.59 µM | 3.38 | > 16.4 |  |  |  |
| C=C[C@]1(C)C=C2C(=O)[C@@]3(O)OC(=O)[C@@]4(CCCC(C)(C)[C@H]34)[C@@]2(O)CC1 | 1.07 | 2.48 | 0.608 | 1.91 µM | 1.37 | 2.76 µM | 1.61 | 2.98 µM | 1.22 | 4.43 µM | 0.282 | 1.62 µM | 1.67 | 3.22 |  |  |  |
| CN1CCN(Cc2ccc(NC(=O)c3cncc(C#Cc4c(N)ncc5cc(F)ccc45)c3)cc2C(F)(F)F)CC1 | 4.86 | 12.6 | 0.836 | 1.57 µM | 0.86 | 2.73 µM | 0.581 | 4.93 µM | 0.289 | 1.49 µM | 0.2 | 2.03 µM | 0.729 | 1.43 |  |  |  |
| O=C(O)CC1(C(=O)O)CCCCC1 |  | > 100 |  | > 100 µM |  | > 100 µM |  | > 100 µM |  | > 100 µM |  | > 100 µM |  | > 100 |  |  |  |
| O=C(Nc1ccc(Br)c(Cl)c1)c1cc(F)ccc1O | 0.525 | 2.7 | 1.06 | 3.97 µM | 0.771 | 6.32 µM | 2.75 | 13.9 µM | 0.97 | 2.83 µM | 0.121 | 0.755 µM | 0.421 | 3.87 |  |  |  |
| CCCC(=O)NNc1[nH]c(-c2ccc(OC)cc2)cc1C(=O)OCC | 15.7 | 31 | 22 | 45.1 µM | 19.3 | 37 µM | 2.39 | 5.89 µM | 3.1 | 93.2 µM | 18.6 | 35.5 µM | 12.7 | 25.6 |  |  |  |
| Cc1ccc2sc3c(NCCCNCCO)nc4ccccc4c3c(=O)c2c1 | 1.54 | 3.02 | 1.5 | 2.88 µM | 1.68 | 3.08 µM | 1.55 | 3.19 µM | 1.86 | 3.58 µM | 1.28 | 3.78 µM | 1.8 | 3.36 |  |  |  |
| CC/C(=C(\CC)c1ccc(OCCN(CC)CC)cc1)c1ccc(OCCN(CC)CC)cc1 | 4.55 | 13.9 | 1.63 | 3.75 µM | 1.29 | 3.85 µM | 1.47 | 3.07 µM | 3.8 | 9.84 µM | 0.879 | 4.72 µM | 1.67 | 3.37 |  |  |  |
